Assay results reported in patent US20050101595A1, “N-containing cycloalkyl-substituted amino-thiazole derivatives and pharmaceutical compositions for inhibiting cell proliferation and methods for their use” (PFIZER INC., priority 2003, published 2005).
Where a name gives a salt, the structure may show the parent alone.

What was measured:
[1] = molecular target: CDK2/Cyclin A (Homo sapiens, UniProt P24941); test: Inhibition of CDK2/Cyclin A Retinoblastoma Kinase Activity; format: biochemical; details: for inhibition at 0.05 µM: read-out: % inhibition of CDK2 (@ 0.05 μM), compound at 0.05 μM; for Ki: apparent Ki, CDK2/proteolyzed cyclin A, Rb fragment substrate, 25 μM ATP
Method in brief: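 Percent inhibition is calculated against DMSO-only wells after subtracting no-enzyme background. The enzyme is human CDK2 complexed with proteolyzed cyclin A, used at 10 nM or 19 nM on an Rb fragment with 25 μM [32/33P]ATP, at pH 7.4 and 30° C.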

[2] = system: HCT-116 cell line; test: Inhibition of cell growth, tetrazolium salt (MTT) assay; format: cell-based; details: MTT; for inhibition at 0.175 µM / IC50: Homo sapiens; for inhibition at 0.175 µM: HCT-116, HCT-116 cells; for IC50: HCT-116, 120 h, first HCT-116 column (c4), three to five days, read-out: HCT-116 IC50
Method in brief: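 MTT colorimetric viability: three-to-five-day compound exposure in 0.5% (v/v) DMSO at 37° C, MTT 0.2 mg/mL for the last 4 h, A540 compared with vehicle-treated cells.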

Row | Structure (SMILES) | inhibition at 0.05 µM [1] [%] | inhibition at 0.175 µM ([2]; compound at 0.175 uM) [%] | further results
1 | C=C(C)CN(C)CCCS(=O)(=O)N1CCC(Nc2nc(N)c(C(=O)c3c(F)cccc3F)s2)CC1 [Example V137] | 76 | 78 | 
2 | C[C@H](NCCCS(=O)(=O)N1CCC(Nc2nc(N)c(C(=O)c3c(F)cccc3F)s2)CC1)C(N)=O [Example V121] | 77 | 4 | 
3 | COC(=O)CNCCCS(=O)(=O)N1CCC(Nc2nc(N)c(C(=O)c3c(F)cccc3F)s2)CC1 [Example V50] | 81 | 0 | 
4 | CN(CCCS(=O)(=O)N1CCC(Nc2nc(N)c(C(=O)c3c(F)cccc3F)s2)CC1)Cc1ccco1 [Example V82] | 88 | 60 | 
5 | C=CCNCCCS(=O)(=O)N1CCC(Nc2nc(N)c(C(=O)c3c(F)cccc3F)s2)CC1 [Example V103] | 84 | 37 | 
6 | CSCCNCCCS(=O)(=O)N1CCC(Nc2nc(N)c(C(=O)c3c(F)cccc3F)s2)CC1 [Example V128] | 87 | 25 | 
7 | Nc1nc(NC2CCN(S(=O)(=O)CCCNCc3ncccc3O)CC2)sc1C(=O)c1c(F)cccc1F [Example V165] | 93 | 6 | 
8 | CN(CCCS(=O)(=O)N1CCC(Nc2nc(N)c(C(=O)c3c(F)cccc3F)s2)CC1)CC(N)=O [Example V138] | 76 | 0 | 
9 | CN(CCCS(=O)(=O)N1CCC(Nc2nc(N)c(C(=O)c3c(F)cccc3F)s2)CC1)Cc1ccccc1 [Example V13] | 90 | 79 | 
10 | Nc1nc(NC2CCN(S(=O)(=O)CCCNCCSCCO)CC2)sc1C(=O)c1c(F)cccc1F [Example V125] | 87 | 5 | 
11 | Nc1nc(NC2CCN(S(=O)(=O)CCCN3CCCC(F)(F)C3)CC2)sc1C(=O)c1c(F)cccc1F [Example V167] | 83 | 0 | 
12 | Nc1nc(NC2CCN(S(=O)(=O)CCCNc3nccc4cccnc34)CC2)sc1C(=O)c1c(F)cccc1F [Example V145] | 83 | 0 | 
13 | Nc1nc(NC2CCN(S(=O)(=O)CCCN3CCC(CCO)CC3)CC2)sc1C(=O)c1c(F)cccc1F [Example V134] | 80 | 8 | 
14 | Nc1nc(NC2CCN(S(=O)(=O)CCCNCc3ccccn3)CC2)sc1C(=O)c1c(F)cccc1F [Example V7] | 82 | 0 | 
15 | Nc1nc(NC2CCN(S(=O)(=O)CCCN3CCCC(CO)C3)CC2)sc1C(=O)c1c(F)cccc1F (stereo not shown) [Example V36] | 50 | 8 | 
16 | Cc1nnc(CN(C)CCCS(=O)(=O)N2CCC(Nc3nc(N)c(C(=O)c4c(F)cccc4F)s3)CC2)o1 [Example V176] | 73 | 0 | 
17 | Nc1nc(NC2CCN(S(=O)(=O)CCCNc3nnn[nH]3)CC2)sc1C(=O)c1c(F)cccc1F [Example V84] | 24 | 0 | 
18 | COC(=O)C1CCN(CCCS(=O)(=O)N2CCC(Nc3nc(N)c(C(=O)c4c(F)cccc4F)s3)CC2)C1 (stereo not shown) [Example V160] | 84 | 0 | 
19 | Nc1nc(NC2CCN(S(=O)(=O)CCCNC3CCOC3=O)CC2)sc1C(=O)c1c(F)cccc1F (stereo not shown) [Example V18] | 22 | 0 | 

Row | Structure (SMILES) | inhibition at 0.05 µM [1] [%] | inhibition at 0.175 µM ([2]; compound at 0.175 uM) [%] | further results
20 | Nc1ncccc1CNCCCS(=O)(=O)N1CCC(Nc2nc(N)c(C(=O)c3c(F)cccc3F)s2)CC1 [Example V151] | 79 | 0 | 
21 | CCc1ccc(C)cc1NCCCS(=O)(=O)N1CCC(Nc2nc(N)c(C(=O)c3c(F)cccc3F)s2)CC1 [Example V112] | 88 | 57 | 
22 | CCN(CCO)CCCS(=O)(=O)N1CCC(Nc2nc(N)c(C(=O)c3c(F)cccc3F)s2)CC1 [Example V51] | 79 | 0 | 
23 | Nc1nc(NC2CCN(S(=O)(=O)CCCNCCC3=CCCCC3)CC2)sc1C(=O)c1c(F)cccc1F [Example V49] | 91 | 38 | 
24 | CCC(COC)NCCCS(=O)(=O)N1CCC(Nc2nc(N)c(C(=O)c3c(F)cccc3F)s2)CC1 (stereo not shown) [Example V97] | 81 | 28 | 
25 | CN1CCN(CCCS(=O)(=O)N2CCC(Nc3nc(N)c(C(=O)c4c(F)cccc4F)s3)CC2)CC1 [Example V35] | 72 | 17 | 
26 | Nc1nc(NC2CCN(S(=O)(=O)CCCNCc3cccs3)CC2)sc1C(=O)c1c(F)cccc1F [Example V28] | 91 | 33 | 
27 | CN(CCCS(=O)(=O)N1CCC(Nc2nc(N)c(C(=O)c3c(F)cccc3F)s2)CC1)C1CCCCC1 [Example K61, (4-Amino-2-{1-[3-(cyclohexyl-methyl-amino)-propane-1-sulfonyl]-piperidin-4-ylamino}-thiazol-5-yl)-(2,6-difluoro-phenyl)-methanone. Acetic Acid Salt] |  |  | Ki [1]: 0.008 µM; IC50 [2]: 0.17 µM
28 | CN(CCCS(=O)(=O)N1CCC(Nc2nc(N)c(C(=O)c3c(F)cccc3F)s2)CC1)Cc1ccccc1 [Example V181, (4-Amino-2-{[1-({3-[benzyl(methyl)amino]propyl}sulfonyl)-4-piperidinyl]amino}-1,3-thiazol-5-yl)(2,6-difluorophenyl)methanone.] |  |  | Ki [1]: 0.0065 µM; IC50 [2]: 0.06 µM
29 | NC(=O)CNCCCS(=O)(=O)N1CCC(Nc2nc(N)c(C(=O)c3c(F)cccc3F)s2)CC1 [Example V17] | 78 | 0 | 
30 | Cc1ccc(CNCCCS(=O)(=O)N2CCC(Nc3nc(N)c(C(=O)c4c(F)cccc4F)s3)CC2)cc1 [Example V80] | 91 | 21 | 
31 | Nc1nc(NC2CCN(S(=O)(=O)CCCNCc3ccc[nH]c3=O)CC2)sc1C(=O)c1c(F)cccc1F [Example V169] | 76 | 25 | 
32 | Cc1cccc(CNCCCS(=O)(=O)N2CCC(Nc3nc(N)c(C(=O)c4c(F)cccc4F)s3)CC2)c1 [Example V180, (4-Amino-2-{[1-({3-[(3-methylbenzyl)amino]propyl}sulfonyl)-4-piperidinyl]amino}-1,3-thiazol-5-yl)(2,6-difluorophenyl)methanone.] |  |  | Ki [1]: 0.004 µM; IC50 [2]: 0.09 µM
33 | Nc1nc(NC2CCN(S(=O)(=O)CCCNC3CCSCC3)CC2)sc1C(=O)c1c(F)cccc1F [Example V161] | 88 | 2 | 
34 | Nc1nc(NC2CCN(S(=O)(=O)CCCNCC3(O)CCCCC3)CC2)sc1C(=O)c1c(F)cccc1F [Example V144] | 87 | 0 | 
35 | CC(C)(C)NCCC(=O)N1CCC(Nc2nc(N)c(C(=O)c3c(F)cccc3F)s2)CC1 [Example U4, Acetic Acid Salt] |  |  | inhibition at 0.5 µM ([1]; @0.5 μM, printed in the CDK2 Ki column): 40%; IC50 [2]: > 5 µM
36 | Nc1nc(NC2CCN(S(=O)(=O)CCCN3CCCCCC3)CC2)sc1C(=O)c1c(F)cccc1F [Example V37] |  |  | % inhibition of CDK2 (@ 0.05 μM) ([1]; compound at 0.05 μM, 0.05 µM): 85%; % inhibition HCT-116 in MTT @ 0.175 uM ([2]; HCT-116 cells, compound at 0.175 uM, 0.175 µM): 65%
37 | CC(O)CNCCCS(=O)(=O)N1CCC(Nc2nc(N)c(C(=O)c3c(F)cccc3F)s2)CC1 (stereo not shown) [Example V42] | 79 | 4 | 
38 | Nc1nc(NC2CCN(S(=O)(=O)CCCNCCOCCO)CC2)sc1C(=O)c1c(F)cccc1F [Example V11] | 74 | 11 | 
